Assay [1] concerns L5 and L6 spinal nerve ligated rats (mechanical allodynia). Description: Antiallodynic activity, Chung model, electronic Von Frey probes. In kind it is in vivo, rat (Rj: Wistar (Han)). As to conditions: for % Change (force required to induce paw-withdrawal vs controls): ligatured paw. From the text: (§1) The procedure used to test the antiallodynic activity of a compound of Formula (I) was the procedure for the measurement of allodynia found in the Chung Model (Kim S. H. and Chung J. M., An Experimental Model for Peripheral Neuropathy Produced by Segmental Spinal Nerve Ligation in the Rat, Pain, 1992, 50, 355–363).
Pathogen-free, male Rj: Wistar (Han) rats (300–380 g) were purchased from Elevage Janvier, 53940 Le Genest-Saint-Isle, France. The animals were maintained on a 12-h light/dark cycle (lights on from 7:00–19:00) in a controlled ambient temperature of 21±1° C., and relative humidity maintained at 40–70%. The animals had free access to food (UAR 113) and tap water until tested.
Rats were anesthetized (sodium pentobarbital 40 mg/kg i.p.). A ligature was tied tightly around the left L5 and L6 spinal nerves. The rats received an i.m. injection of 50 000 IU Penicillin (Diamant®) and were allowed to recover. This procedure results in mechanical allodynia in the left hind paw. Two weeks after the surgery, when the allodynic state was fully developed, rats were submitted consecutively to tactile stimulation of both the non-lesioned and the lesioned hindpaws.
The animals were placed on an elevated grid floor in Plexiglass boxes (19×11.5×13 cm). The tip of an electronic Von Frey probe (Bioseb, Model 1610) was then applied with increasing pressure to the lesioned and non-lesioned hindpaws and the force required to induce paw-withdrawal was automatically recorded. Prior to receiving drug treatment all animals were submitted to tactile stimulation and assigned to treatment groups matched on the basis of their pain response. This procedure was carried out 3 times for each paw and the mean paw force was calculated to provide basic scores per animal. Data were expressed as percent change (means±SEM) of effectiveness from the controls. Statistical analysis was done using non-paired and paired Student's t tests.
As summarized in Table 2 below, the enantiomer of Formula (Ic) was evaluated at the doses 10, 30 and 100 mg/kg (n=8), administered p.o. in a volume of 5 mL/kg. Morphine ([…]) was used as reference substance. Control animals received a p.o. administration of vehicle. The test was performed blind 30, 60 and 90 minutes after drug administration.

Assay [2] deals with L5 spinal nerve ligated rats (mechanical allodynia, Chung model of neuropathic pain). Description: Antiallodynic activity, Chung model, manually applied von Frey probes. In kind it is in vivo, rat (Sprague-Dawley). As to conditions: for % Maximum Possible Effect: time of peak effect. On the procedure: as §1
Pathogen-free, male albino Sprague-Dawley rats, 200 g, were purchased from Harlan Industries (Indianapolis, Ind.) and maintained on a 12-h light/dark cycle (lights on at 06:00 h) in a climate-controlled room with food and water available ad libitum up to the time of the testing and food withdrawn 18 hr prior to testing.
The rats were anesthetized with isoflurane inhalant anesthesia. The left lumbar spinal nerve at the level of L5 was tightly ligated (4-0 silk suture) distal to the dorsal root ganglion and prior to entrance into the sciatic nerve, as described by Kim and Chung. The incisions were closed and the rats were allowed to recover under conditions described above. This procedure results in mechanical allodynia in the left hind paw. The sham operation, when performed, consisted of a similar surgical procedure lacking only the final ligation of the spinal nerve. Mechanical (tactile) allodynia was assessed by recording the pressure at which the affected paw (ipsilateral to the site of nerve injury) was withdrawn from graded stimuli (von Frey filaments ranging from 4.0 to 148.1 mN) applied by hand perpendicularly to the plantar surface of the paw (between the footpads) through wire-mesh observation cages. A paw withdrawal threshold (PWT) was determined by sequentially increasing and decreasing the stimulus strength and analyzing withdrawal data using a Dixon non-parametric test, as described by Chaplan et al (Chaplan S. R., Bach F. W., Pogrel J. W., Chung J. M. and Yaksh T. L., Quantitative Assessment of Tactile Allodynia in the Rat Paw, J Neurosci Meth, 1994, 53, 55–63). Normal rats, sham operated rats, and the contralateral paw of L5 ligated rats withstand at least 148.1 mN (equivalent to 15 g) of pressure without responding. […]

As for `NC(=O)OC[C@H](OC(N)=O)c1ccccc1Cl` [Formula (Ic)], the “% Change (force required to induce paw-withdrawal vs controls)” value in assay [1] (10 mg/kg p.o., 60 minute post-dosing, n=8) amounted to 69%; in assay [1] (30 mg/kg p.o., 60 minute post-dosing, n=8) it was 115%; in assay [1] (100 mg/kg p.o., 60 minute post-dosing, n=8), 88%. Besides, the “Effect on non-ligatured paw withdrawal force” value in assay [1] (10, 30 and 100 mg/Kg p.o., 60 minute post-dosing) is listed as “without affecting the non-ligatured paw”. For the same compound, the “Anti-allodynic effect at 90 minutes post-dosing” value in assay [1] (10, 30 and 100 mg/Kg p.o., 90 minutes post-dosing) is listed as “no longer present by 90 minutes post-dosing”. For the same compound, the “% Maximum Possible Effect” value in assay [2] (30 mg/Kg po, 30 minutes after oral dosing, n=5) is listed as 0%; in assay [2] (100 mg/Kg po, 30 to 60 minutes after oral dosing, n=10), 25.7%. For the same compound, the “Duration of antiallodynic response” value in assay [2] (30 and 100 mg/Kg po, responses measured at 0.5, 1, 2 and 4 hours post dosing) is recorded as “responses returned to baseline by one hour”.
For the compound `CN1CC[C@]23c4c5ccc(O)c4O[C@H]2[C@@H](O)C=C[C@H]3[C@H]1C5` [morphine, reference compound], the “% Change (force required to induce paw-withdrawal vs controls)” value in assay [1] (128 mg/Kg morphine positive control) worked out at 38%.
